The values that follow are results of earlier work, collected in patent publication US11981760B2, “Therapeutic hydrogels and contact lens for corneal melting” (THE REGENTS OF THE UNIVERSITY OF COLORADO, priority 2018, dated 2024).

`c1ccc(CNCc2ccccn2)nc1` [DPA, dipicolylamine]: the “association with other metal ions” value (Ca^2+, Mg^2+, Na^+ and K^+) is given as “does not associate strongly”. The Kd (five-membered chelate ring, read-out: Kd of Zn^2+ complexation) was around 0.01 nM.
